This is an account of results in ChEMBL document CHEMBL5055630, “Design, synthesis and biological evaluation of indole-based [1,2,4]triazolo[4,3-a] pyridine derivatives as novel microtubule polymerization inhibitors” (Eur J Med Chem, 2021).

For series [1], the system named is HCT-116. Put plainly: Antiproliferative activity against human HCT-116 assessed as reduction in cell viability measured after 48 hrs by MTT assay. The class given is functional, cell-based. Conditions: HCT-116, 48 h.
The test system of series [2] is HeLa. Nature of the series: Antiproliferative activity against human HeLa assessed as reduction in cell viability measured after 48 hrs by MTT assay. In kind it is functional, cell-based. In general terms: Tetrazolium dyes change colour on reduction, which living cells bring about.
Series [3] deals with MCF7. Nature of the series: Antiproliferative activity against human MCF7 assessed as reduction in cell viability measured after 48 hrs by MTT assay. The settings on record: MCF7, 48 h. The class given is functional, cell-based.
The test system of series [4] is A549. Nature of the series: Antiproliferative activity against human A549 assessed as reduction in cell viability measured after 48 hrs by MTT assay. The class given is functional, cell-based. The settings on record: A549, 48 h.
Series [5] is described as follows: Metabolic stability in human liver microsomes assessed as parent compound remaining after 60 mins. The class given is ADME, Microsome. Conditions: read-out: Stability. (Liver microsomes are vesicles of endoplasmic reticulum, rich in cytochrome P450 enzymes.)
The nature of series [6]: Metabolic stability in human liver microsomes assessed as parent compound remaining after 15 mins. In kind it is ADME, Microsome. The settings on record: read-out: Stability.
Series [7] in a line: Metabolic stability in human liver microsomes assessed as parent compound remaining after 30 mins. The class given is ADME, Microsome. The settings on record: read-out: Stability.
The nature of series [8]: Metabolic stability in human liver microsomes assessed as parent compound remaining measured immediately after compound addition. The class given is ADME, Microsome. The settings on record: read-out: Stability.
Series [9] can be described thus: Metabolic stability in human liver microsomes assessed as parent compound remaining after 90 mins. In kind it is ADME, Microsome. Conditions: read-out: Stability.
Series [10] in a line: Metabolic stability in human liver microsomes assessed as half life. In kind it is ADME, Microsome.

With `C=C(c1cc(OC)c(OC)c(OC)c1)c1ccc2c(c1)c1ccccc1n2C`, the IC50 in [1] amounted to 1.54 µM; in series [2] it was 3.97 µM; in series [3], 5.49 µM; in [4], 0.478 µM.

For `COc1cc(-c2nnc3c(OC4CN(C(C)(C)C)C4)cc(-c4ccc5[nH]ccc5c4)cn23)cc(OC)c1OC`, the IC50 in series [1], in series [2], in [3] and in [4] was over 10 µM each time.

Take `CCOc1cc(-c2ccc3ccn(C)c3c2)cn2c(-c3cc(OC)c(OC)c(OC)c3)nnc12`: the IC50 in series [1] was determined as 0.291 µM; in series [2], 0.24 µM; in series [3] it was 0.239 µM; in series [4], 0.349 µM.

For the molecule `COc1ccc(/C=C/C=C\c2cc(OC)c(OC)c(OC)c2)cc1O`, in series [5], the remaining at 1 h came out at 12.5%. The remaining at 0.25 h in series [6] came out at 47.7%. Also, the remaining at 0.5 h in series [7] is 26.3%. Besides, the IC50 in series [1] came out at 0.0423 µM; in series [2] it was 0.062 µM; in series [3], 0.075 µM; in [4], 0.118 µM. Also, the remaining at 0 min in [8] amounted to 100%. Besides, the remaining at 1.5 h in series [9] was found to be 9.2%. Further, the half-life in series [10] came to 26.7 min.

With `CCOc1cc(-c2ccc3[nH]ccc3c2)cn2c(-c3cc(OC)c(OC)c(OC)c3)nnc12`, the IC50 was determined as 0.374 µM in series [1], 0.166 µM in series [2], 0.284 µM in series [3] and 0.589 µM in [4].

In the case of `CCOc1cc(-c2ccc3[nH]c4ccccc4c3c2)cn2c(-c3cc(OC)c(OC)c(OC)c3)nnc12`, the IC50 in [1] worked out at 2.42 µM; in series [2], 0.472 µM; in series [3], 0.295 µM; in [4] it was 0.922 µM.

On to `COc1cc(-c2nnc3c(OCC(F)(F)F)cc(-c4ccc5[nH]ccc5c4)cn23)cc(OC)c1OC`, for which the IC50 stood at 0.9 µM in series [1], 0.348 µM in series [2], 0.608 µM in [3] and 0.585 µM in series [4].

Take `COc1cc(-c2nnc3c(OCC(F)(F)F)cc(-c4ccc5c(ccn5C)c4)cn23)cc(OC)c1OC`: the IC50 turned out to be 0.483 µM in [1], 0.199 µM in series [2], 0.382 µM in series [3] and 0.614 µM in series [4].

On to `CCOc1cc(-c2ccc3c(ccn3C)c2)cn2c(-c3cc(OC)c(OC)c(OC)c3)nnc12`, for which the IC50 worked out at 0.228 µM in series [1], 0.21 µM in series [2], 0.14 µM in series [3] and 0.334 µM in [4].

Regarding `CCCN1CC(Oc2cc(-c3ccc4c(ccn4C)c3)cn3c(-c4cc(OC)c(OC)c(OC)c4)nnc23)C1`, the IC50 in series [1] is 0.675 µM; in series [2], 0.211 µM; in [3], 0.378 µM; in series [4] it was 0.234 µM.

Consider `COc1cc2c(c(OC)c1OC)-c1ccc(OC)c(=O)cc1[C@@H](NC(C)=O)CC2` [COLCHICINE], for which the IC50 turned out to be 0.083 µM in series [1], 0.103 µM in series [2], 0.048 µM in series [3] and 0.111 µM in [4].

As to `COc1cc(-c2cc(OC)c3nnc(-c4ccc5c(ccn5C)c4)n3c2)cc(OC)c1OC`, the IC50 in series [1], in series [2], in [3] and in series [4] was over 10 µM throughout.

As to `CCOc1cc(-c2ccc3cc[nH]c3c2)cn2c(-c3cc(OC)c(OC)c(OC)c3)nnc12`, the IC50 in [1] worked out at 1.34 µM; in [2], 0.272 µM; in series [3] it was 0.334 µM; in series [4] it was 0.626 µM.

Regarding `COc1cc(-c2nnc3c(OC4COC4)cc(-c4ccc5[nH]ccc5c4)cn23)cc(OC)c1OC`, the IC50 is 5.37 µM in series [1], 2.78 µM in [2], 2.47 µM in series [3] and 9.81 µM in series [4].

As for `COc1cc(-c2nnc3c(OC)cc(-c4ccc5[nH]ccc5c4)cn23)cc(OC)c1OC`, the IC50 in series [1] was determined as 0.108 µM; in [2], 0.085 µM; in [3] it was 0.08 µM; in series [4] it was 0.167 µM.

With `COc1cc(-c2cc(OC)c3nnc(-c4ccc5[nH]ccc5c4)n3c2)cc(OC)c1OC`, the IC50 in series [1], in series [2], in [3] and in series [4] was over 10 µM each time.

Take `CC(=O)O[C@H]1C(=O)[C@@]2(C)[C@H]([C@H](OC(=O)c3ccccc3)[C@]3(O)C[C@H](OC(=O)[C@H](O)[C@@H](NC(=O)c4ccccc4)c4ccccc4)C(C)=C1C3(C)C)[C@]1(OC(C)=O)CO[C@@H]1C[C@@H]2O` [PACLITAXEL]: the IC50 in series [1] is 0.021 µM; in series [2], 0.008 µM; in [4] it was 0.015 µM.

With `COc1cc(-c2nnc3c(OC4COC4)cc(-c4ccc5c(ccn5C)c4)cn23)cc(OC)c1OC`, the IC50 in series [1] was 1.29 µM; in [2], 0.214 µM; in [3], 1.9 µM; in series [4], 0.516 µM.

As to `COc1cc(-c2nnc3c(OC(C)C)cc(-c4ccc5c(ccn5C)c4)cn23)cc(OC)c1OC`, the IC50 in series [1] is 0.402 µM; in [2] it was 0.503 µM; in [3] it was 0.204 µM; in [4], 0.322 µM.

On to `COc1cc(-c2nnc3c(OC4CCC4)cc(-c4ccc5c(ccn5C)c4)cn23)cc(OC)c1OC`, for which the IC50 turned out to be 0.75 µM in series [1], 0.177 µM in [2], 0.125 µM in series [3] and 0.176 µM in series [4].

Take `COc1cc(-c2nnc3c(OC)cc(-c4ccc5[nH]cc(C=O)c5c4)cn23)cc(OC)c1OC`: the IC50 in [1], in [2], in [3] and in series [4] was over 10 µM throughout.

`CCOc1cc(-c2ccc3c(c2)c2ccccc2n3C)cn2c(-c3cc(OC)c(OC)c(OC)c3)nnc12`: the IC50 in series [1] is 0.386 µM; in series [2], 0.35 µM; in series [3], 0.303 µM; in series [4] it was 0.901 µM.

As to `COc1cc(-c2nnc3c(OC4CC4)cc(-c4ccc5c(ccn5C)c4)cn23)cc(OC)c1OC`, the IC50 turned out to be 0.135 µM in [1], 0.097 µM in series [2], 0.118 µM in series [3] and 0.168 µM in series [4].

In the case of `COc1cc(-c2nnc3c(OC(C)C)cc(-c4ccc5[nH]ccc5c4)cn23)cc(OC)c1OC`, the IC50 in series [1] came to 0.939 µM; in series [2], 0.261 µM; in series [3], 1.02 µM; in [4] it was 1.25 µM.

In the case of `COc1cc(-c2nnc3c(OC4CCC4)cc(-c4ccc5[nH]ccc5c4)cn23)cc(OC)c1OC`, the IC50 in series [1] was 0.694 µM; in series [2] it was 0.142 µM; in [3] it was 0.267 µM; in [4] it was 0.232 µM.

`COc1cc(-c2nnc3c(OC4CC4)cc(-c4ccc5[nH]ccc5c4)cn23)cc(OC)c1OC`: the IC50 in series [1] was 0.275 µM; in series [2] it was 0.119 µM; in series [3], 0.259 µM; in series [4], 0.198 µM.

For the molecule `COc1cc(-c2nnc3c(OC)cc(-c4ccc5c(c4)c(C=O)cn5C)cn23)cc(OC)c1OC`, the IC50 in [1] was determined as 1.8 µM; in series [2], 0.82 µM; in [3], 1.12 µM; in [4], 3.08 µM.

Broadly, the IC50 is the concentration at which inhibition is half-maximal. For orientation: half-life means the time in which the quantity being followed falls by half.
